Measurements from PMC5618621, “Non-Clinical Studies for Evaluation of 8-C-Rhamnosyl Apigenin Purified from Peperomia obtusifolia against Acute Edema” (International Journal of Molecular Sciences, 2017).

Target: T1, cytosolic phospholipase A2 (cPLA2) (Homo sapiens, UniProt P47712)
T1 construct: gene PLA2G4A
T1 sequence (P47712 1-749): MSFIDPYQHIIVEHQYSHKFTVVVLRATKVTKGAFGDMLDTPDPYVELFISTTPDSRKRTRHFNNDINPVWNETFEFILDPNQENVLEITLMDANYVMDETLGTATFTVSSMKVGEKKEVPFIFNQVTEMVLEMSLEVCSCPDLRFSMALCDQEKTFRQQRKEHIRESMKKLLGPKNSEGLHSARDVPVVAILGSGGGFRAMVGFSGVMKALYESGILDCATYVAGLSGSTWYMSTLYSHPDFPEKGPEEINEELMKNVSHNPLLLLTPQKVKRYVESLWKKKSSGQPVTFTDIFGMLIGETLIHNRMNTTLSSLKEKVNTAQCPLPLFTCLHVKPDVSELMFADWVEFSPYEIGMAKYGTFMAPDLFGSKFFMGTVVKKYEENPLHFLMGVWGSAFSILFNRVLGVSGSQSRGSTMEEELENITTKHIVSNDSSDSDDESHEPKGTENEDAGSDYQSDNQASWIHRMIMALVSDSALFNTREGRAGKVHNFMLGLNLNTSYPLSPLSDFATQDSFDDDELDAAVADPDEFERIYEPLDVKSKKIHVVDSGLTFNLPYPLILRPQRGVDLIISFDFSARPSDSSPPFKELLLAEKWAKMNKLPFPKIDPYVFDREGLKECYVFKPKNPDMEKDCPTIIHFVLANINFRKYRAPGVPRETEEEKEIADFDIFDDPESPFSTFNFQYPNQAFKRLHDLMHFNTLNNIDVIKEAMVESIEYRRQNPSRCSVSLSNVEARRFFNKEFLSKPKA
Assay: recombinant cPLA2 enzymatic assay (Cayman cPLA2 assay kit)
Assay type: biochemical

Question: For C[C@@H]1OC(c2c(O)cc(O)c3c(=O)cc(-c4ccc(O)cc4)oc23)[C@H](O)[C@H](O)[C@H]1O (stereo partly shown) [8CR, 8-C-rhamnosyl apigenin], which IC50 is on record?
Answer: 134 µM
